# Patent US4605654A, “2-(arylalkyloxymethyl)morpholines and the central nervous system compositions” (P. F. Medicament, priority 1984, dated 1986)
# Structures can show the parent of a compound that is named as a salt. Where two headings read alike, the source gives them in different places.
# Experiments:
# [1] = tested on: 5-HTP (5-hydroxytryptophan); assay: 5-HTP (5-hydroxytryptophan) potentiation test (Christensen et al.): head movements and tremors; type: in vivo, mice; conditions: for activity in the 5-HTP potentiation test: in words; for ED50: Mus musculus, 0.25 h
# Description: The mice receive an intravenous injection of 5-HTP (100 mg/10 ml/kg) after oral administration of the compounds to be studied (25 ml/kg). Fifteen minutes after the injection of 5-HTP, the presence and intensity of head movements and tremors are noted.
# [2] = tested on: nociceptive reactions; assay: Heating-plate test, analgesic activity (WOOLFE and MacDONALD); type: in vivo; conditions: mouse, oral, 100 mg/kg; 30 min; plate 65° C.
# Description: The products to be tested are administered to the mouse orally. 30 minutes later, the mice are placed on a plate brought to 65° C. The nociceptive reactions are assessed objectively in terms of the licking of the forepaws. The time for this response to appear is noted.
# The method of calculation used is that described by HARRIS L. S. and PIERSON A. K. (1964, J. Pharmacol. Exp. Ther., 143, 141-148).
# [3] = Solubility in water
# [4] = physchem; conditions: water
# [5] = mice, oral, 5-HTP i.v. 100 mg/10 ml/kg, observed 15 min after 5-HTP, read-out: ED50
compound,measurement,setting,value
2-[(3-Phenylpropyloxy)methyl]morpholine hydrogen oxalate [Example 16],activity in the 5-HTP potentiation test,"[1]; mice, oral",activity
"CCC(=O)O[C@](Cc1ccccc1)(c1ccccc1)[C@H](C)CN(C)C [Dextropropoxyphene, reference compound]",PERCENTAGE ANALGESIA,[2],15%
"c1ccc(COCC2CNCCO2)cc1 (stereo not drawn) [Example 1, 2-(benzyloxymethyl)morpholine hydrogen maleate]",solubility,[3],100 mg/mL
"COc1ccccc1COCC1CNCCO1 (stereo not drawn) [Example 2, 2-[(2-Methoxybenzyloxy)methyl]morpholine hydrogen fumarate]",solubility,[3],50 mg/mL
"COc1cccc(COCC2CNCCO2)c1 (stereo not drawn) [Example 3, 2-[(3-Methoxybenzyloxy)methyl]morpholine hydrogen maleate]",ED50,[1]; [5],10 mg/kg
same,activity in the 5-HTP potentiation test,"[1]; mice, oral",activity
same,solubility,[3],10 mg/mL
"COc1ccc(COCC2CNCCO2)cc1 (stereo not drawn) [Example 4, 2-[(4-methoxybenzyloxy)methyl]morpholine hydrogen oxalate]",solubility,[3],40 mg/mL
"Cc1ccccc1COCC1CNCCO1 (stereo not drawn) [Example 5, 2-[(2-Methylbenzyloxy)methyl]morpholine hydrogen maleate]",PERCENTAGE ANALGESIA,[2],20%
same,ED50,[1]; [5],16 mg/kg
same,activity in the 5-HTP potentiation test,"[1]; mice, oral",activity
"Cc1cccc(COCC2CNCCO2)c1 (stereo not drawn) [Example 6, 2-[(3-Methylbenzyloxy)methyl]morpholine hydrogen maleate]",solubility,[3],30 mg/mL
"Cc1ccc(COCC2CNCCO2)cc1 (stereo not drawn) [Example 7, 2-[(4-Methylbenzyloxy)methyl]morpholine hydrogen oxalate]",solubility,[3],20 mg/mL
"Clc1ccccc1COCC1CNCCO1 (stereo not drawn) [Example 8, 2-[(2-Chlorobenzyloxy)methyl]morpholine hydrogen maleate]",ED50,[1]; [5],15 mg/kg
same,activity in the 5-HTP potentiation test,"[1]; mice, oral",activity
same,solubility,[3],20 mg/mL
"Clc1cccc(COCC2CNCCO2)c1 (stereo not drawn) [Example 9, 2-[(3-Chlorobenzyloxy)methyl]morpholine hydrogen maleate]",PERCENTAGE ANALGESIA,[2],16%
same,ED50,[1]; [5],15 mg/kg
same,activity in the 5-HTP potentiation test,"[1]; mice, oral",activity
same,solubility,[3],20 mg/mL
"Clc1ccc(COCC2CNCCO2)cc1 (stereo not drawn) [Example 10, 2-[(4-Chlorobenzyloxy)methyl]morpholine hydrogen maleate]",solubility,[3],60 mg/mL
"CCOc1ccccc1COCC1CNCCO1 (stereo not drawn) [Example 11, 2-[(2-Ethoxybenzyloxy)methyl]morpholine hydrogen maleate]",PERCENTAGE ANALGESIA,[2],16%
same,ED50,[1]; [5],15 mg/kg
same,activity in the 5-HTP potentiation test,"[1]; mice, oral",activity
same,solubility,[3],30 mg/mL
"Clc1ccc(COCC2CNCCO2)c(Cl)c1 (stereo not drawn) [Example 12, 2-[(2,4-Dichlorobenzyloxy)methyl]morpholine hydrogen maleate]",solubility,[3],40 mg/mL
"Clc1ccc(COCC2CNCCO2)cc1Cl (stereo not drawn) [Example 13, 2-[(3,4-Dichlorobenzyloxy)methyl]morpholine hydrogen maleate]",solubility,[3],10 mg/mL
"Clc1cccc(Cl)c1COCC1CNCCO1 (stereo not drawn) [Example 14, 2-[(2,6-Dichlorobenzyloxy)methyl]morpholine hydrogen maleate]",PERCENTAGE ANALGESIA,[2],23%
same,ED50,[1]; [5],18 mg/kg
same,solubility,[3],50 mg/mL
"Fc1cccc(Cl)c1COCC1CNCCO1 (stereo not drawn) [Example 15, 2-[(2-Fluoro-6-chlorobenzyloxy)methyl]morpholine hydrogen maleate]",solubility,[3],30 mg/mL
"c1ccc2c(c1)OCC(COCC1CNCCO1)O2 (stereo not drawn) [Example 17, 2-{[(1,4-Benzodioxan-2-yl)methoxy]methyl}morpholine hydrogen maleate]",solubility,[3],100 mg/mL
"CC(OCC1CNCCO1)c1ccccc1 (stereo not drawn) [Example 37, 2-[(1-Phenylethyloxy)methylmorpholine hydrogen oxalate]",solubility,[3],50 mg/mL
"O=C(O)C(=O)O.Oc1ccc(COCC2CNCCO2)cc1 (stereo not drawn) [Example 42, 2-[(4-Hydroxybenzyloxy)methyl]morpholine hydrogen oxalate]",solubility,[4],200 mg/mL
"c1ccc(COc2ccc(COCC3CNCCO3)cc2)cc1 (stereo not drawn) [Example 42b, 2-[4-Benzyloxybenzyloxy)methyl]morpholine hydrogen oxalate]",solubility,[3],10 mg/mL
"Oc1cccc(COCC2CNCCO2)c1 (stereo not drawn) [Example 43, 2-[(3-Hydroxybenzyloxy)methyl]morpholine hydrogen oxalate]",solubility,[3],100 mg/mL
"Nc1ccc(COCC2CNCCO2)cc1 (stereo not drawn) [Example 44, 2-[(4-Aminobenzyloxy)methyl]morpholine dihydrogen succinate]",solubility,[3],60 mg/mL
"Nc1cccc(COCC2CNCCO2)c1.O=C(O)CCC(=O)O (stereo not drawn) [Example 45, 2-[(3-Aminobenzyloxy)methyl]morpholine dihydrogen succinate]",solubility,[4],120 mg/mL
"c1ccc2nc(N3CCNCC3)ccc2c1 [Quipazine, reference compound]",ED50,[1]; po,15 mg/kg
